Data: US20190055576A1, “USE OF HERBICIDE-TOLERANT PROTEIN” (BEIJING DABEINONG TECHNOLOGY GROUP CO., LTD., priority 2016, published 2019)

Tests used:
[1] = system: wild-type Arabidopsis thaliana plants; experiment: Herbicide tolerance of wild-type Arabidopsis thaliana plants, resistance classes counted after spraying; assay type: in vivo
Description: T1 transformants were initially selected from the background of untransformed seeds using a glufosinate selection scheme. About 40000 T1 seeds were screened, and 380 T1 positive transformants (PAT gene) were identified with a transformation efficiency of about 0.95%. The plants that were transformed with the recombinant expression vector DBN100632 were Arabidopsis thaliana plants having an ALT-1-01 nucleotide sequence located in the cytoplasm introduced (At cytoplasmic ALT-1-01), and the plants that were transformed with the recombinant expression vector DBN100631 were Arabidopsis thaliana plants having an ALT-1-01 nucleotide sequence located in the chloroplast introduced (At chloroplastic ALT-1-01); the plants that were transformed with the recombinant expression vector DBN100634 were Arabidopsis thaliana plants having an ALT-2-01 nucleotide sequence located in the cytoplasm introduced (At cytoplasmic ALT-2-01), and the plants that were transformed with the recombinant expression vector DBN100633 were Arabidopsis thaliana plants having an ALT-2-01 nucleotide sequence located in the chloroplast introduced (At chloroplastic ALT-2-01); and the plants that were transformed with the recombinant expression vector DBN100636 were Arabidopsis thaliana plants having an ALT-3-01 nucleotide sequence located in the cytoplasm introduced (At cytoplasmic ALT-3-01), and the plants that were transformed with the recombinant expression vector DBN100635 were Arabidopsis thaliana plants having an ALT-3-01 nucleotide sequence located in the chloroplast introduced (At chloroplastic ALT-3-01). The herbicide tolerance effects of At cytoplasmic ALT-1-01 T1 plants, At chloroplastic ALT-1-01 T1 plants, At cytoplasmic ALT-2-01 T1 plants, At chloroplastic ALT-2-01 T1 plants, At cytoplasmic ALT-3-01 T1 plants, At chloroplastic ALT-3-01 T1 plants and wild-type Arabidopsis thaliana plants on Sulfometuron-methyl were detected (14 days after sowing), respectively.
At cytoplasmic ALT-1-01 T1 plants, At chloroplastic ALT-1-01 T1 plants, At cytoplasmic ALT-2-01 T1 plants, At chloroplastic ALT-2-01 T1 plants, At cytoplasmic ALT-3-01 T1 plants, At chloroplastic ALT-3-01 T1 plants and wild-type Arabidopsis thaliana plants were sprayed with Sulfometuron-methyl (30 g ai/ha, 1-fold field concentration) and a blank solvent (water), respectively. Plants were counted for the resistance situations 14 days after spraying: those having a consistent growth status with the blank solvent (water) group after 14 days were classified as highly resistant plants, those having a bolting height less than ½ of that of the blank solvent (water) group after 14 days were classified as moderately resistant plants, those still not capable of bolting after 14 days were classified as poorly resistant plants, and those dead after 14 days were classified as non-resistant plants. Since each Arabidopsis thaliana T1 plant was an independent transformation event, a significant difference in individual T1 responses could be expected at a given dose.
At cytoplasmic ALT-1-01 T1 plants, At chloroplastic ALT-1-01 T1 plants, At cytoplasmic ALT-2-01 T1 plants, At chloroplastic ALT-2-01 T1 plants, At cytoplasmic ALT-3-01 T1 plants, At chloroplastic ALT-3-01 T1 plants and wild-type Arabidopsis thaliana plants in Example 4 were sprayed with iodosulfuron-methyl (10 g ai/ha, 1-fold field concentration), mesosulfuron (14 g ai/ha, 1-fold field concentration) and oxasulfuron (60 g ai/ha, 1-fold field concentration), respectively, in addition to Sulfometuron-methyl (30 g ai/ha, 1-fold field concentration) and the blank solvent (water). […]

[2] = system: wild-type maize plants (CK2); experiment: Sulfometuron-methyl tolerance of wild-type maize plants, damage degree; assay type: in vivo; details: 120 g ai/ha
Description: The herbicide tolerance effects of Zm cytoplasmic ALT-1-02 maize plants, Zm chloroplastic ALT-1-02 maize plants, Zm cytoplasmic ALT-2-02 maize plants, Zm chloroplastic ALT-2-02 maize plants, Zm cytoplasmic ALT-3-02 maize plants, Zm chloroplastic ALT-3-02 maize plants and wild-type maize plants on Sulfometuron-methyl were detected (at V3-V4 stage), respectively.
Zm cytoplasmic ALT-1-02 maize plants, Zm chloroplastic ALT-1-02 maize plants, Zm cytoplasmic ALT-2-02 maize plants, Zm chloroplastic ALT-2-02 maize plants, Zm cytoplasmic ALT-3-02 maize plants, Zm chloroplastic ALT-3-02 maize plants and wild-type maize plants were respectively taken and sprayed with Sulfometuron-methyl (120 g ai/ha, 4-fold field concentration) and a blank solvent (water). The damage degree caused by the herbicide was measured for each plant according to the plant growth status 3 days after spraying (3 DAT), 7 days after spraying (7 DAT), 14 days after spraying (14 DAT) and 21 days after spraying (21 DAT), respectively: considering a growth status equivalent to that of the untreated plants as having a damage degree of 0%; considering conditions of leaves being partially chlorotic and yellow but substantially not affecting the plant normal growth as having a damage degree of 50%; and considering the whole plant being purple and dying as having a damage degree of 100%. There were 2 strains in Zm cytoplasmic ALT-1-02 maize plants in total (S13 and S14), 2 strains in Zm chloroplastic ALT-1-02 maize plants in total (S15 and S16), 2 strains in Zm cytoplasmic ALT-2-02 maize plants in total (S17 and S18), 2 strains in Zm chloroplastic ALT-2-02 maize plants in total (S19 and S20), 2 strains in Zm cytoplasmic ALT-3-02 maize plants in total (S21 and S22), 2 strains in Zm chloroplastic ALT-3-02 maize plants in total (S23 and S24), and 1 strain in wild-type maize plants (CK2) in total; and 10-15 plants were selected from each strain and tested.

[3] = 1-fold field concentration (g ai/ha: Sulfometuron-methyl 30, iodosulfuron-methyl 10, mesosulfuron 14, oxasulfuron 60), 14 days after spraying

SMILES: COC(=O)c1ccccc1S(=O)(=O)NC(=O)Nc1nc(C)cc(C)n1 [Sulfometuron-methyl, 2-(4,6-dimethylpyrimidine-2-amino-formamido-sulfonyl) methyl benzoate]
- Highly resistant (number of plants with growth status consistent with blank solvent group) [1, 3]: 0
- Moderately resistant (number of plants with bolting height less than 1/2 of blank solvent group) [1, 3]: 0
- Non-resistant (number of plants dead) [1, 3]: 32
- Poorly resistant (number of plants still not capable of bolting) [1, 3]: 0
- herbicide tolerance of wild-type plants ([1]; 30 g ai/ha): none of the wild-type Arabidopsis thaliana plants was tolerant
- Average damage % 3DAT ([2]; CK2 (wild-type maize), 4-fold field concentration, 3 days after spraying): 44%
- Average damage % 7DAT ([2]; CK2 (wild-type maize), 4-fold field concentration, 7 days after spraying): 87%
- Average damage % 14DAT ([2]; CK2 (wild-type maize), 4-fold field concentration, 14 days after spraying): 100%
- Average damage % 21DAT ([2]; CK2 (wild-type maize), 4-fold field concentration, 21 days after spraying): 100%
- herbicide tolerance of wild-type plants ([2]; wild-type maize plants): not tolerant
